From the supplement of paper PMC13380429

Assays:
A549-ACE2 [1] = experiment: phospholipidosis EC50; higher = less potent phospholipidosis inducer
A549-ACE2 [2] = experiment: drug-induced phospholipidosis relative to tamoxifen; higher = more phospholipidosis
Calu-3 [3] = experiment: drug sensitivity score (DSS) for viability; higher = more toxic; extreme values may be limits of the assay; settings: 72 h
HepG2 [4] = experiment: as above; settings: 72 h
Vero E6 [5] = experiment: as above; settings: 72 h
Caco-2 [6] = experiment: as above; settings: 72 h
U2OS [7] = experiment: as above; settings: 72 h
[8] = tested on: A549-ACE2 infected with SARS-CoV-2; experiment: cell count relative to DMSO; higher = less toxic; settings: 24 h
[9] = tested on: A549-ACE2 infected with SARS-CoV-2; experiment: SARS-CoV-2 infection rate relative to DMSO; higher = more infection; settings: 24 h
Calu-3 [10] = experiment: relative viability EC50 (midpoint between 100% and the lowest measured viability); higher = less toxic; settings: 72 h
HepG2 [11] = experiment: as above; settings: 72 h
Vero E6 [12] = experiment: as above; settings: 72 h
[13] = tested on: A549-ACE2 infected with SARS-CoV-2; experiment: morphology score (similarity to uninfected cells); higher = more like uninfected cells; settings: 24 h
Calu-3 [14] = experiment: cell viability relative to DMSO; higher = less toxic; settings: 72 h
HepG2 [15] = experiment: as above; settings: 72 h
Vero E6 [16] = experiment: as above; settings: 72 h
Caco-2 [17] = experiment: as above; settings: 72 h
U2OS [18] = experiment: as above; settings: 72 h
Caco-2 [19] = experiment: relative viability EC50 (midpoint between 100% and the lowest measured viability); higher = less toxic; settings: 72 h
U2OS [20] = experiment: as above; settings: 72 h

CCN(CC)CC1CCN(c2ncc3ncnc(Nc4ccc(F)c(Cl)c4)c3n2)CC1 [BIBU-1361]
Settings	SARS-CoV-2 infection rate [%]	cell count [%]	cell viability [%]	morphology score	phospholipidosis EC50 [nM]
A549-ACE2 [1], 24 h	–	–	–	–	3200
A549-ACE2 [1], 48 h	–	–	–	–	3880
A549-ACE2 [1], 72 h	–	–	–	–	3900
Caco-2 [17], 1 nM	–	–	98	–	–
Caco-2 [17], 10 nM	–	–	85.1	–	–
Caco-2 [17], 100 nM	–	–	103	–	–
Caco-2 [17], 1000 nM	–	–	74.1	–	–
Caco-2 [17], 10000 nM	–	–	50.3	–	–
Calu-3 [14], 1 nM	–	–	100	–	–
Calu-3 [14], 10 nM	–	–	100	–	–
Calu-3 [14], 100 nM	–	–	90.7	–	–
Calu-3 [14], 1000 nM	–	–	56.7	–	–
Calu-3 [14], 10000 nM	–	–	8.7	–	–
HepG2 [15], 1 nM	–	–	100	–	–
HepG2 [15], 10 nM	–	–	100	–	–
HepG2 [15], 100 nM	–	–	106	–	–
HepG2 [15], 1000 nM	–	–	90	–	–
HepG2 [15], 10000 nM	–	–	40.4	–	–
U2OS [18], 1 nM	–	–	100	–	–
U2OS [18], 10 nM	–	–	104	–	–
U2OS [18], 100 nM	–	–	101	–	–
U2OS [18], 1000 nM	–	–	96.6	–	–
U2OS [18], 10000 nM	–	–	57.3	–	–
Vero E6 [16], 1 nM	–	–	97.3	–	–
Vero E6 [16], 10 nM	–	–	96.4	–	–
Vero E6 [16], 100 nM	–	–	93.1	–	–
Vero E6 [16], 1000 nM	–	–	63.2	–	–
Vero E6 [16], 10000 nM	–	–	42.9	–	–
[8], 0.3 µM	–	105	–	–	–
[8], 3 µM	–	117	–	–	–
[8], 10 µM	–	122	–	–	–
[8], 30 µM	–	72	–	–	–
[9], 0.3 µM	98	–	–	–	–
[9], 3 µM	26	–	–	–	–
[9], 10 µM	27	–	–	–	–
[9], 30 µM	90	–	–	–	–
[13], 0.3 µM	–	–	–	0.01	–
[13], 3 µM	–	–	–	0.87	–
[13], 10 µM	–	–	–	0.28	–
[13], 30 µM	–	–	–	-0.37	–

drug-induced phospholipidosis [%], A549-ACE2 [2]
Settings	0.3 µM	0.833333 µM	3.33333 µM	6.66667 µM	10 µM	30 µM
24 h	2.83	15.5	75.3	121	120	99.8
48 h	4.06	11.5	65.6	111	126	–
72 h	4.98	9.71	51.2	111	123	–

Settings	drug sensitivity score	relative viability EC50 [nM]
Caco-2 [6]	5.9	–
Calu-3 [3]	10.1	–
Calu-3 [10]	–	1020
HepG2 [4]	4.9	–
HepG2 [11]	–	1890
U2OS [7]	2.7	–
Vero E6 [5]	7.8	–
Vero E6 [12]	–	573

Cc1ccc(C(=O)Nc2cccc(C(F)(F)F)c2)cc1Nc1nc(-c2cccnc2)nc2c1cnn2C [NVP-BHG712]
Settings	SARS-CoV-2 infection rate [%]	cell count [%]	cell viability [%]	morphology score	phospholipidosis EC50 [nM]
A549-ACE2 [1], 24 h	–	–	–	–	1650
A549-ACE2 [1], 48 h	–	–	–	–	2210
A549-ACE2 [1], 72 h	–	–	–	–	3750
Caco-2 [17], 1 nM	–	–	93.9	–	–
Caco-2 [17], 10 nM	–	–	93.5	–	–
Caco-2 [17], 100 nM	–	–	101	–	–
Caco-2 [17], 1000 nM	–	–	96.6	–	–
Caco-2 [17], 10000 nM	–	–	107	–	–
Calu-3 [14], 1 nM	–	–	100	–	–
Calu-3 [14], 10 nM	–	–	95.2	–	–
Calu-3 [14], 100 nM	–	–	96.3	–	–
Calu-3 [14], 1000 nM	–	–	108	–	–
Calu-3 [14], 10000 nM	–	–	102	–	–
HepG2 [15], 1 nM	–	–	117	–	–
HepG2 [15], 10 nM	–	–	104	–	–
HepG2 [15], 100 nM	–	–	96.5	–	–
HepG2 [15], 1000 nM	–	–	48.6	–	–
HepG2 [15], 10000 nM	–	–	74.1	–	–
U2OS [18], 1 nM	–	–	95.7	–	–
U2OS [18], 10 nM	–	–	94.3	–	–
U2OS [18], 100 nM	–	–	109	–	–
U2OS [18], 1000 nM	–	–	95.5	–	–
U2OS [18], 10000 nM	–	–	105	–	–
Vero E6 [16], 1 nM	–	–	96.5	–	–
Vero E6 [16], 10 nM	–	–	102	–	–
Vero E6 [16], 100 nM	–	–	98.1	–	–
Vero E6 [16], 1000 nM	–	–	109	–	–
Vero E6 [16], 10000 nM	–	–	108	–	–
[8], 0.3 µM	–	98	–	–	–
[8], 3 µM	–	111	–	–	–
[8], 10 µM	–	69	–	–	–
[8], 30 µM	–	93	–	–	–
[9], 0.3 µM	99	–	–	–	–
[9], 3 µM	68	–	–	–	–
[9], 10 µM	41	–	–	–	–
[9], 30 µM	84	–	–	–	–
[13], 0.3 µM	–	–	–	-0.1	–
[13], 3 µM	–	–	–	0.35	–
[13], 10 µM	–	–	–	0.14	–
[13], 30 µM	–	–	–	0.25	–

drug-induced phospholipidosis [%], A549-ACE2 [2]
Settings	0.3 µM	0.833333 µM	3.33333 µM	6.66667 µM	10 µM	30 µM
24 h	3.95	19.7	113	126	120	138
48 h	7.5	21.5	139	176	183	–
72 h	7.15	18.8	137	208	244	–

Settings	drug sensitivity score	relative viability EC50 [nM]
Caco-2 [6]	0	–
Caco-2 [19]	–	> 10000
Calu-3 [3]	0	–
Calu-3 [10]	–	> 10000
HepG2 [4]	9.9	–
HepG2 [11]	–	264
U2OS [7]	0	–
U2OS [20]	–	> 10000
Vero E6 [5]	0	–
Vero E6 [12]	–	> 10000
